In brackets after ≈: the same amount, converted by molar mass. Marks after values point to notes of the source that are not given here.
How the values were obtained:
[1] = TGA/DSC test (thermostability); assay type: physicochemical; settings: for thermostability (compared with crystalline form C): conclusion from TGA/DSC table
From the text: TGA and DSC Test Methods:
TGA and DCS patterns were collected on TA Discovery TGA 5500 thermogravimetric analyzer and TA Discovery DSC 2500 differential scanning calorimeter, respectively.

[2] = test system: mice leukopenia models (peripheral blood leukocytes); test: Cyclophosphamide-induced mice leukopenia model, leukocyte counts; assay type: in vivo, male Balb/C mice; settings: for Leukocyte Level, End of treatment: 30 mg/kg intragastric once daily for 28 days, Day 29; for Leukocyte Level, End of treatment / Leukocyte Level, Before modeling / Leukocyte Level, After modeling: X ± S; for Leukocyte Level, Before modeling / Leukocyte Level, After modeling: 30 mg/kg intragastric once daily; for Leukocyte Level, Before modeling: Day 7 after drug administration; for Leukocyte Level, After modeling: Day 15, cyclophosphamide 25 mg/kg i.p. Day 8 to Day 14; for effect on leucocyte level compared to the leucogen crystalline form C group / leucocyte levels after treatment, compared to the model control group: 30 mg/kg, after treatment, P<0.05
Experimental: A total of 100 male Balb/C mice with the body weight ranging from 22 g to 24 g were randomly selected and randomly divided into the following five groups: the normal control group, the model control group, the leucogen crystalline form A group, the leucogen crystalline form B group, and the leucogen crystalline form C group, 20 mice in each group. In the leucogen crystalline forms A, B and C groups, the mice were intragastrically administered with 30 mg/kg once daily for a total of 28 days. In the normal control group and the model control group, the mice were administered with an equal volume of saline once daily for a total of 28 days. In the model control group and the leucogen groups, 25 mg/kg of cyclophosphamide was intraperitoneally injected in the mice at Day 8 to Day 14 respectively to establish mice leukopenia models. Blood samples were collected from the retro-orbital venous sinus of mice before modeling, after modeling, and at the end of drug administration (i.e., Day 7, Day 15, and Day 29 after drug administration) for leukocyte counts, respectively. The experimental data were statistically processed with the SPSS 17.0 software package, and expressed as mean±standard deviation (X±S), where P<0.05 indicated there was a statistical significance.

[3] = Test on saturated solubility in water (HPLC); assay type: physicochemical; settings: for solubility property (compared with crystalline form C): conclusion from water saturation solubility table; for Solubility in 1 h / Solubility in 2 h / Solubility in 18 h: 37° C.
Experimental: Test on Saturated Solubility in Water:
• Chromatographic column: KromasiL C18 4.6*250 mm, 5 m • Column temperature: 30° C. flow rate: 1.0 mL/min sample size: 20 μL detection wavelength: 210 nm • Mobile phase: acetonitrile-water-glacial acetic acid (42:58:0.3) • Formulation of control solution: 10 mg of leucogen as a control product was precisely weighed, put in a 100-mL measuring flask, dissolved with the mobile phase, and diluted to the scale to afford 100 μg/mL of mother solution, and the mother solution was subjected to 10-fold, 100-fold, and 1000-fold serial dilutions to afford solutions at the concentrations of 10 μg/mL, 1 μg/mL, and 0.1 μg/mL, respectively.
Formulation of test solution: about 20 mg of 211118 batch (crystalline form A) and 211124 batch (crystalline form B) of the leucogen samples were weighed, each for 3 copies, and put in six 10-mL test tubes with stoppers respectively; 10 mL of water was added respectively; the test tubes were oscillated under the conditions of 37° C. and 100 r/min for 1 h, 2 h, and 18 h respectively; the resultants were filtered through 0.45-μm microporous filter membranes, and the filtrates were taken as the test solutions.
The control solution and the test solutions were tested under the above chromatographic conditions, separately. The area of the control solution was linearly regressed with its concentration. The saturated solubility in water was obtained from the peak areas of the test solutions.

[4] = listed as Leucogen crystalline form A
[5] = listed as Leucogen crystalline form B
[6] = water, 100 r/min, oscillated 1 h
[7] = water, 100 r/min, oscillated 2 h
[8] = water, 100 r/min, oscillated 18 h
[9] = listed as Leucogen crystalline form C

CCOC(=O)C(c1ccccc1)C1N[C@H](C(=O)O)CS1 (some centres unmarked)
TGA Weight Loss (%) ([1]; 100° C.): 3.07 (100° C.) %
thermostability (compared with crystalline form C) [1]: better than that of the crystalline form C
Leukocyte Level, End of treatment [2, 4]: 9.23 ± 1.42*^Δ 10^9/L
Leukocyte Level, Before modeling [2, 4]: 9.92 ± 1.59 10^9/L
Leukocyte Level, After modeling [2, 4]: 3.31 ± 1.43 10^9/L
effect on leucocyte level compared to the leucogen crystalline form C group [2]: better effect
leucocyte levels after treatment, compared to the model control group [2]: significantly increased
solubility property (compared with crystalline form C) [3]: better than that of the crystalline form C
solubility ([3]; water, 37 °C, thermodynamic from solid): ≥ 240 µg/mL
solubility at 1 h ([3]; water, 37 °C, thermodynamic from solid, 100 r/min, oscillated 1 h): 115 µg/mL (≈ 390 µM)
solubility at 2 h ([3]; water, 37 °C, thermodynamic from solid, 100 r/min, oscillated 2 h): 137 µg/mL (≈ 465 µM)
solubility at 18 h ([3]; water, 37 °C, thermodynamic from solid, 100 r/min, oscillated 18 h): 241 µg/mL (≈ 816 µM)

CCOC(=O)C(c1ccccc1)C1N[C@H](C(=O)O)CS1 (single isomer, unassigned)
TGA Weight Loss (%) ([1]; 150° C.): 0.46 (150° C.) %
thermostability (compared with crystalline form C) [1]: better than that of the crystalline form C
Leukocyte Level, End of treatment [2, 5]: 8.98 ± 1.13*^Δ 10^9/L
Leukocyte Level, Before modeling [2, 5]: 9.63 ± 0.99 10^9/L
Leukocyte Level, After modeling [2, 5]: 3.46 ± 1.24 10^9/L
effect on leucocyte level compared to the leucogen crystalline form C group [2]: better effect
leucocyte levels after treatment, compared to the model control group [2]: significantly increased
solubility property (compared with crystalline form C) [3]: better than that of the crystalline form C
solubility in water ([3]; listed as crystalline form B of leucogen): ≥ 256 µg/mL
Solubility in 1 h [3, 6]: 161.68 µg/mL (≈ 547 µM)
Solubility in 2 h [3, 7]: 177.41 µg/mL (≈ 601 µM)
Solubility in 18 h [3, 8]: 256.62 µg/mL (≈ 869 µM)

CCOC(=O)C(c1ccccc1)C1N[C@H](C(=O)O)CS1 (single isomer, unassigned) [reference compound]
TGA Weight Loss (%) ([1]; 70° C.): 3.54 (70° C.) %
Leukocyte Level, End of treatment [2, 9]: 6.05 ± 1.56* 10^9/L
Leukocyte Level, Before modeling [2, 9]: 9.98 ± 1.56 10^9/L
Leukocyte Level, After modeling [2, 9]: 3.32 ± 0.89 10^9/L
leucocyte levels after treatment, compared to the model control group [2]: significantly increased
Solubility in 1 h [3, 6]: 112.64 µg/mL (≈ 381 µM)
Solubility in 2 h [3, 7]: 133.16 µg/mL (≈ 451 µM)
Solubility in 18 h [3, 8]: 227.89 µg/mL (≈ 772 µM)

From US20250179037A1 (Jiangsu Jibeier Pharmaceutical Co., Ltd., priority 2021, published 2025)
